IC50, EC50 and AC50 data for seven molecules are collected here from ChEMBL document CHEMBL1201862, “PubChem BioAssay data set” (2004).

The target of one assay is T1, Hexokinase HKDC1 (Homo sapiens, UniProt Q2TB90).
T1 sequence (Q2TB90 whole entry): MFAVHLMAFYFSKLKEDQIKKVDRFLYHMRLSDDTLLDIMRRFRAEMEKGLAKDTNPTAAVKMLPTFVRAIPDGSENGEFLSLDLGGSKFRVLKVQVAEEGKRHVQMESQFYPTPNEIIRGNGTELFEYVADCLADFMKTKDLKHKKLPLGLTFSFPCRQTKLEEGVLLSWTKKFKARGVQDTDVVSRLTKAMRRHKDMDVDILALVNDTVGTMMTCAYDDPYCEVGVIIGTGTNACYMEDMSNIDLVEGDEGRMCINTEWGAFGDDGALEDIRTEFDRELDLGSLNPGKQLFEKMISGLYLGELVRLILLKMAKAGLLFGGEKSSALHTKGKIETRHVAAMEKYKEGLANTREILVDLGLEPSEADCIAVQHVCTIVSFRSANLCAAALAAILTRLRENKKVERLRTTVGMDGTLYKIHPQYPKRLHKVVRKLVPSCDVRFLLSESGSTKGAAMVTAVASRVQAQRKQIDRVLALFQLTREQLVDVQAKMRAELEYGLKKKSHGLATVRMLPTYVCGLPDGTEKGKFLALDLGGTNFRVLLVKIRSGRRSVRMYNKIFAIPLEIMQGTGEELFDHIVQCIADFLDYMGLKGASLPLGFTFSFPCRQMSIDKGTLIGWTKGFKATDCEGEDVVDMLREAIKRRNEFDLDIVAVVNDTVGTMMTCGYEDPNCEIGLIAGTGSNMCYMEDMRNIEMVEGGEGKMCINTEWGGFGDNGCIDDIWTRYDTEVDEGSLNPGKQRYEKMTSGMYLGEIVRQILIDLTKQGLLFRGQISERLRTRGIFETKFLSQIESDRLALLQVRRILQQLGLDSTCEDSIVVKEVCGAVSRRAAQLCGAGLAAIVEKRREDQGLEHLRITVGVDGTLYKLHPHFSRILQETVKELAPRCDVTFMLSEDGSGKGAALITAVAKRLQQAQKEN
The experiment in a line: inhibition of HKDC1 glucose phosphorylation – biochemical, W721R variant, dose response (AID 504729). In kind it is functional.

Assay [1] concerns the target T2, Tyrosyl-DNA phosphodiesterase 2 (Homo sapiens, UniProt O95551).
T2 sequence (O95551 whole entry): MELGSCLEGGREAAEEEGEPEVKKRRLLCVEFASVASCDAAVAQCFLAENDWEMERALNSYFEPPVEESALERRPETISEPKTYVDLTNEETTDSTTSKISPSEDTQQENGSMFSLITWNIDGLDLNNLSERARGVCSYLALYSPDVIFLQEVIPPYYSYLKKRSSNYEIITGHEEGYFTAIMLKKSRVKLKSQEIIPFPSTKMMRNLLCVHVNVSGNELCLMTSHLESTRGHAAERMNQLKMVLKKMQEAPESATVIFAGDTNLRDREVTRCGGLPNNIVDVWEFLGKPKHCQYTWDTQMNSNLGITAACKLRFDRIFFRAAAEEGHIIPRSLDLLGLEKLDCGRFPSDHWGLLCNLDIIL
Kind of assay: potency against TDP2 phosphodiesterase activity – biochemical, epi absorbance, IC50, dose response (AID 743297).

Assay [2] can be described thus: luciferase reporter signal suppression in cells – H4 neuroglioma cells, luminescence, dose response (AID 1990). Format: functional, cell-based.
Assay [3] in a line: alpha-synuclein stem-loop luciferase translation blockers – H4 neuroglioma cells, luminescence, confirmation (AID 1988). Format: functional, cell-based.
Assay [4] in a line: Luminescence Cell-Based Dose Response HTS to Identify Inhibitors of 5'UTR Stem-Loop Driven Prion Protein mRNA Translation in H4 Neuroglioblastoma Cells. [Related pubchem assays: 1827 (Project Summary), 1813 (Primary HTS)]. Format: functional.
Assay [5] concerns the target T3, Replicative DNA helicase DnaB (Mycobacterium tuberculosis, UniProt P9WMR3).
T3 sequence (P9WMR3 whole entry): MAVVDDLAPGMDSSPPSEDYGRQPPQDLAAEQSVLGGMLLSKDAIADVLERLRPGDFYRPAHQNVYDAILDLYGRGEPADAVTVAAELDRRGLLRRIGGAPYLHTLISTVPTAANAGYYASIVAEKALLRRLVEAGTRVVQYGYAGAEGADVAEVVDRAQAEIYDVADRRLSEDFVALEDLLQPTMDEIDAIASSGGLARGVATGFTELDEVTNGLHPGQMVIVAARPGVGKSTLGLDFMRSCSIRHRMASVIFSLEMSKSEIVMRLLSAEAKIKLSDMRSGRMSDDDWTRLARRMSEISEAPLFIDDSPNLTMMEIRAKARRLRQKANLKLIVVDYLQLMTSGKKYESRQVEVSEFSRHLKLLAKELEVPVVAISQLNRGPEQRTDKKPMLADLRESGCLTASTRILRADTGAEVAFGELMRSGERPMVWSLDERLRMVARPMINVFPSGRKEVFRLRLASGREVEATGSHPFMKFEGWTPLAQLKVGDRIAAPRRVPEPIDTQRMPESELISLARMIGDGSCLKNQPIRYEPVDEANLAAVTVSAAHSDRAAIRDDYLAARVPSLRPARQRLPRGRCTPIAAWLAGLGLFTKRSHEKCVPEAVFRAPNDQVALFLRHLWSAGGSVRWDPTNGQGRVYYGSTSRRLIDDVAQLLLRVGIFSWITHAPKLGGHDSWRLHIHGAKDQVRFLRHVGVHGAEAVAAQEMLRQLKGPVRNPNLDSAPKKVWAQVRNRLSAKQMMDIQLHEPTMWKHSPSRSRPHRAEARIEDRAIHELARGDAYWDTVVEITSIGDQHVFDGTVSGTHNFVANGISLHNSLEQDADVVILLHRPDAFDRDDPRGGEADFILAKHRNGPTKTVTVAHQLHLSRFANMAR
The experiment in a line: DnaB intein splicing inhibitors, dose response, biochemical, cell-free fluorescence (AID 449749). Format: functional.

Assay [6] deals with T4, Sentrin-specific protease 8 (Homo sapiens, UniProt Q96LD8).
T4 sequence (Q96LD8 whole entry): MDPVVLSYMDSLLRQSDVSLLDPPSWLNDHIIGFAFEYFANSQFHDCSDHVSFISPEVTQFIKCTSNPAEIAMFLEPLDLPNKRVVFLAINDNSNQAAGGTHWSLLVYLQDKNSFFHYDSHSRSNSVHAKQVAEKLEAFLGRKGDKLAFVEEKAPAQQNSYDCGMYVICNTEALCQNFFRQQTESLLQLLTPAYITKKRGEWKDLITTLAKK
Format: functional.

Another assay has as its target T5, Caspase-3 (Homo sapiens, UniProt P42574).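 Further: Dose-response selectivity test against caspase-3 for candidate inhibitors of sentrin-specific proteases (SENPs).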
T5 sequence (P42574 whole entry): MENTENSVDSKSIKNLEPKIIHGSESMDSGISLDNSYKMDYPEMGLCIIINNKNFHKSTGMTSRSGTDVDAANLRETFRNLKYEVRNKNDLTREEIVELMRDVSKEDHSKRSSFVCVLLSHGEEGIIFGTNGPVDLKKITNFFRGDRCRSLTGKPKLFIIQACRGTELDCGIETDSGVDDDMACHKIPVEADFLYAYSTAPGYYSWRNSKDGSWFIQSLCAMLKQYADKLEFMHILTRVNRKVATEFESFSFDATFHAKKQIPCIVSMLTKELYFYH
In kind it is functional.

Calls of active or inactive are those of the source.

Take `O=C1C=C(N2CCCCC2)c2ccccc2C1=O`: the IC50 at Hexokinase HKDC1 is 1.34 µM (active); in assay [1], 5.32 µM (active). Moreover, the values for the EC50 in assay [2], in assay [3] and in assay [4] were > 120 µM (not active), 9.02 µM (active) and 8.27 µM (active), respectively.

`O=C(CCc1ccccc1)NNc1cc(N2CCCCC2)nc(N2CCCCC2)n1`: the EC50 in assay [2], in assay [3] and in assay [4] was > 120 µM (not active) in each case.

Consider `O=C(O)C1Nc2c(O)cc(Cl)c([N+](=O)[O-])c2C2C=CCC12` (stereo not drawn), for which the AC50 in assay [5] is 12.8 µM (active).

With `Oc1ccc(N=Nc2c(O)ccc3ccccc23)cc1`, the concentration for half-maximal inhibition (IC50) in assay [6] was 8.8 µM (active); at Caspase-3, 49.7 µM (active).

As to `Clc1ccc2nc(-c3ccc(Br)s3)cn2c1`, the IC50 was 16.5 µM (active) in assay [6] and 11.2 µM (active) on Caspase-3.

As for `O=C1N=C(NS(=O)(=O)Cc2ccccc2)S/C1=C1\C(=O)Nc2ccccc21`, the IC50 is 24.5 µM (active) in assay [6] and 67.2 µM (active) at Caspase-3.

As to `CC(=O)NC1C(=O)N(CCN2CCOCC2)c2ccc(F)cc21` (stereo not drawn), the results for the IC50 (on Hexokinase HKDC1; in assay [1]) were 9.43 µM (active) and 33.4 µM (inactive), respectively. The AC50 in assay [5] was 12.3 µM (active).
